In the assay the target is Human plasma kallikrein (Homo sapiens (Human), UniProt P03952). As to the kind of experiment: In vitro plasma kallikrein inhibition assay (chromogenic substrate D-Pro-Phe-Arg-pNa, absorbance at 405 nm, IC50 determination). The format is biochemical. To be noted: read-out: KLKB1 pIC50 (converted).
Human plasma kallikrein, sequence (P03952 391-638): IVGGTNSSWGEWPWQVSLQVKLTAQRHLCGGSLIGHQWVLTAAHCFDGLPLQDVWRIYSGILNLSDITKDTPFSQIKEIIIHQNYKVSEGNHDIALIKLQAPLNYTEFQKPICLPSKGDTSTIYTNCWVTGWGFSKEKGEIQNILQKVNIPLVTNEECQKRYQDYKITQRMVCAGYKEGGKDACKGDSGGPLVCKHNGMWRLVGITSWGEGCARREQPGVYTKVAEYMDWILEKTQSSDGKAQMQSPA
Human plasma kallikrein, sequence (P03952 20-390 partner): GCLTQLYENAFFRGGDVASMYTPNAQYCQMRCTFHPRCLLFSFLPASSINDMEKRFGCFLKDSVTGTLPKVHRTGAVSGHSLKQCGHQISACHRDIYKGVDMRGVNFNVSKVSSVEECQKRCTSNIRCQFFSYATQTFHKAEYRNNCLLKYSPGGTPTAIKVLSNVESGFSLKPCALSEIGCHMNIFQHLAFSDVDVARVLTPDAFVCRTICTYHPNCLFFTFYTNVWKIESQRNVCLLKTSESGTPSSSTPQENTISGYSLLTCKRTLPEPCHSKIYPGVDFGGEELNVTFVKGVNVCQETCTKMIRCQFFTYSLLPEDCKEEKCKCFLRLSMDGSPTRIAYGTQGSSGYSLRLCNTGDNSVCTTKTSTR

With `Cc1cc(N)nc(C)c1CNC(=O)c1ccc2c(c1)[C@@H]1O[C@H]2c2ccc(-c3ccc(F)c(F)c3F)cc21` (single isomer, unassigned) [Example 138], the IC50 is 24 nM.

For `Cc1cc(N)nc(C)c1CNC(=O)c1ccc2c(c1)[C@@H]1O[C@H]2c2ccc(-c3ccc(Cl)cc3C#N)cc21` (single isomer, unassigned) [Example 139], the IC50 was 3.02 nM.

In the case of `Cc1ccc(-c2ccc3c(c2)[C@H]2O[C@@H]3c3ccc(C(=O)NCc4c(C)cc(N)nc4C)cc32)c(C#N)c1` (single isomer, unassigned) [Example 140], the IC50 is 5.01 nM.

Take `Cc1cc(N)nc(C)c1CNC(=O)c1ccc2c(c1)[C@@H]1O[C@H]2c2ccc(-c3ccc(Cl)c(F)c3F)cc21` (single isomer, unassigned) [Example 145]: the IC50 is 17.4 nM.

Regarding `Cc1cc(N)nc(C)c1CNC(=O)c1ccc2c(c1)[C@@H]1O[C@H]2c2ccc(-c3ccc(Cl)cc3F)cc21` (single isomer, unassigned) [Example 174], the IC50 is 46.8 nM.

`Cc1cc(N)nc(C)c1CNC(=O)c1ccc2c(c1)[C@@H]1O[C@H]2c2ccc(-c3ccc(F)cc3Cl)cc21` (single isomer, unassigned) [Example 176]: the IC50 is 67.6 nM.

Turning to `COc1ccc(-c2ccc3c(c2)[C@H]2O[C@@H]3c3ccc(C(=O)NCc4c(C)cc(N)nc4C)cc32)c(F)n1` (single isomer, unassigned) [Example 177], the IC50 is 117 nM.

For the compound `Cc1cc(N)nc(C)c1CNC(=O)c1ccc2c(c1)[C@@H]1O[C@H]2c2ccc(Cn3cc(F)cn3)cc21` (single isomer, unassigned) [Example 178], the IC50 was 1 nM.

Consider `Cc1cc(N)nc(C)c1CNC(=O)c1ccc2c(c1)[C@@H]1O[C@H]2c2ccc(Cn3cc(Cl)cn3)cc21` (single isomer, unassigned) [Example 179], for which the IC50 is 1 nM.

In the case of `CCc1cc(N)nc(C)c1CNC(=O)c1ccc2c(c1)[C@@H]1O[C@H]2c2ccc(-c3ccc(F)cc3F)cc21` (single isomer, unassigned) [Example 183], the IC50 is 12 nM.

Consider `Cc1cc(N)nc(C)c1CNC(=O)c1ccc2c(c1)[C@@H]1O[C@H]2c2cc(Oc3cccc(F)c3)ccc21` (single isomer, unassigned) [Example 184], for which the IC50 was 75.9 nM.

For the compound `Cc1cc(N)nc(C)c1CNC(=O)c1ccc2c(c1)[C@@H]1O[C@H]2c2ccc(Oc3ccn(C)n3)cc21` (single isomer, unassigned) [Example 185], the IC50 is 2240 nM.

As to `Cc1cc(N)nc(C)c1CNC(=O)c1ccc2c(c1)[C@@H]1O[C@H]2c2ccc(-n3c(=O)ccn3C)cc21` (single isomer, unassigned) [Example 186], the IC50 was 1820 nM.

With `N=C(N)c1ccc(CNC(=O)c2ccc3c(c2)[C@@H]2O[C@H]3c3ccc(-c4ccccc4F)cc32)cc1` (single isomer, unassigned) [Example 187], the IC50 is 1.74 nM.

Turning to `Cc1cc(N)nc(C)c1CNC(=O)c1ccc2c(c1)[C@@H]1O[C@H]2c2ccc(Oc3cccc(F)c3)cc21` (single isomer, unassigned) [Example 191], the IC50 is 105 nM.

As for `Cc1nc(N)cc(Cl)c1CNC(=O)c1ccc2c(c1)[C@@H]1O[C@H]2c2ccc(-c3ccc(F)cc3F)cc21` (single isomer, unassigned) [Example 192], the IC50 is 977 nM.

With `Cc1cc(N)nc(C)c1CNC(=O)c1ccc2c(c1)[C@@H]1O[C@H]2c2ccc(C(=O)N3CC4CCC(C3)O4)cc21` (single isomer, unassigned) [Example 193], the IC50 is 1580 nM.

`Cc1cc(N)nc(C)c1CNC(=O)c1ccc2c(c1)[C@@H]1O[C@H]2c2ccc(C(=O)N(C)c3ccccc3)cc21` (single isomer, unassigned) [Example 194]: the IC50 was 1660 nM.

As for `Cc1cc(N)nc(C)c1CNC(=O)c1ccc2c(c1)[C@@H]1O[C@H]2c2ccc(-c3cccc[n+]3[O-])cc21` (single isomer, unassigned) [Example 195], the IC50 is 1050 nM.

For `Cc1cc(N)nc(C)c1CNC(=O)c1ccc2c(c1)[C@@H]1O[C@H]2c2ccc(C(=O)N(C)c3ccc(F)cc3)cc21` (single isomer, unassigned) [Example 196], the IC50 was 4680 nM.

`Cc1cc(C(=N)N)cc(C)c1CNC(=O)c1ccc2c(c1)[C@@H]1O[C@H]2c2ccc(-c3ccc(F)cc3F)cc21` (single isomer, unassigned) [Example 199]: the IC50 was 0.741 nM.

As for `N=C(N)c1ccc(CNC(=O)c2ccc3c(c2)[C@@H]2O[C@H]3c3ccc(-c4ccc(F)cc4)cc32)cc1` (single isomer, unassigned) [Example 201], the IC50 was 1 nM.

As for `Nc1noc2cc(CNC(=O)c3ccc4c(c3)[C@@H]3O[C@H]4c4ccc(-c5ccc(F)cc5F)cc43)ccc12` (single isomer, unassigned) [Example 205], the IC50 was 1000 nM.

For `N=C(N)c1ccc(CNC(=O)c2ccc3c(c2)[C@@H]2O[C@H]3c3ccc(Br)cc32)cc1` (single isomer, unassigned) [Example 206], the IC50 was 37.2 nM.

As to `Nc1n[nH]c2cc(CNC(=O)c3ccc4c(c3)[C@@H]3O[C@H]4c4ccc(-c5ccc(F)cc5F)cc43)ccc12` (single isomer, unassigned) [Example 207], the IC50 is 4900 nM.

For `Cc1nc(N)cc(C(C)C)c1CNC(=O)c1ccc2c(c1)[C@@H]1O[C@H]2c2ccc(-c3ccc(F)cc3F)cc21` (single isomer, unassigned) [Example 208], the IC50 is 1 nM.

Regarding `N=C(N)c1ccc(CNC(=O)c2ccc3c(c2)[C@@H]2O[C@H]3c3ccc(-c4ccc(F)cc4F)cc32)cc1F` (single isomer, unassigned) [Example 211], the IC50 is 11.7 nM.

Regarding `Cc1cc(N)nc(C)c1CNC(=O)c1ccc2c(c1)[C@@H]1O[C@H]2c2ccc(-c3cccnc3C)cc21` (single isomer, unassigned) [Example 212], the IC50 was 70.8 nM.

Consider `COc1ncccc1-c1ccc2c(c1)[C@H]1O[C@@H]2c2ccc(C(=O)NCc3c(C)cc(N)nc3C)cc21` (single isomer, unassigned) [Example 213], for which the IC50 was 676 nM.

Take `Cc1cc(N)nc(C)c1CNC(=O)c1ccc2c(c1)[C@@H]1O[C@H]2c2ccc(-c3ccc(F)c[n+]3[O-])cc21` (single isomer, unassigned) [Example 214]: the IC50 is 83.2 nM.

As for `Cc1ccncc1-c1ccc2c(c1)[C@H]1O[C@@H]2c2ccc(C(=O)NCc3c(C)cc(N)nc3C)cc21` (single isomer, unassigned) [Example 215], the IC50 was 79.4 nM.

For `Cc1ccc(-c2ccc3c(c2)[C@H]2O[C@@H]3c3ccc(C(=O)NCc4cccc5c(N)nccc45)cc32)c(C#N)c1` (single isomer, unassigned) [Example 216], the IC50 is 15.8 nM.

Consider `N=C(N)c1ccc(CNC(=O)c2ccc3c(c2)[C@@H]2O[C@H]3c3ccc(-c4ccc(Cl)s4)cc32)cc1` (single isomer, unassigned) [Example 217], for which the IC50 is 2 nM.

As to `Cc1cc(N)nc(C)c1CNC(=O)c1ccc2c(c1)[C@@H]1O[C@H]2c2ccc(N(C)c3cccc(F)c3)cc21` (single isomer, unassigned) [Example 218], the IC50 was 26.9 nM.

As for `C=Cc1cc(N)nc(C)c1CNC(=O)c1ccc2c(c1)[C@@H]1O[C@H]2c2ccc(-c3ccc(F)cc3F)cc21` (single isomer, unassigned) [Example 219], the IC50 was 17 nM.

As to `Cc1cc(N)nc(C)c1CNC(=O)c1ccc2c(c1)[C@@H]1O[C@H]2c2ccc(C(=O)c3ccccc3)cc21` (single isomer, unassigned) [Example 220], the IC50 was 12 nM.

Consider `N=C(NC(=O)c1ccc2c(c1)[C@@H]1O[C@H]2c2ccc(-c3ccc(F)cc3F)cc21)c1ccc(N)cc1` (single isomer, unassigned) [Example 221], for which the IC50 was 10000 nM.

`Cc1nc(N)cc(C2=CCOCC2)c1CNC(=O)c1ccc2c(c1)[C@@H]1O[C@H]2c2ccc(-c3ccc(F)cc3F)cc21` (single isomer, unassigned) [Example 222]: the IC50 was 28.2 nM.

In the case of `Cc1ccc(-c2ccc3c(c2)[C@H]2O[C@@H]3c3ccc(C(=O)NCc4ccc(C(=N)N)cc4)cc32)o1` (single isomer, unassigned) [Example 223], the IC50 is 33.9 nM.

Take `Cc1cc(N)nc(C)c1CNC(=O)c1ccc2c(c1)[C@@H]1O[C@H]2c2ccc(Cn3ccccc3=O)cc21` (single isomer, unassigned) [Example 224]: the IC50 is 1 nM.

On to `Nc1nccc2c(CNC(=O)c3ccc4c(c3)[C@@H]3O[C@H]4c4ccc(C(=O)c5ccccc5)cc43)cccc12` (single isomer, unassigned) [Example 226], for which the IC50 was 36.3 nM.

For `C=C(C)c1cc(N)nc(C)c1CNC(=O)c1ccc2c(c1)[C@@H]1O[C@H]2c2ccc(-c3ccc(F)cc3F)cc21` (single isomer, unassigned) [Example 227], the IC50 is 12 nM.

As for `Cc1cc(N)nc(C)c1CNC(=O)c1ccc2c(c1)[C@@H]1O[C@H]2c2ccc(C(=O)c3cccc(F)c3)cc21` (single isomer, unassigned) [Example 228], the IC50 is 12 nM.

Regarding `Cc1cc(N)nc(C)c1CNC(=O)c1ccc2c(c1)[C@@H]1O[C@H]2c2ccc(NC(=O)c3ccccc3)cc21` (single isomer, unassigned) [Example 229], the IC50 was 10000 nM.

With `CCN(c1cccc(F)c1)c1ccc2c(c1)[C@H]1O[C@@H]2c2ccc(C(=O)NCc3c(C)cc(N)nc3C)cc21` (single isomer, unassigned) [Example 230], the IC50 was 12 nM.

Regarding `N=C(N)c1ccc(CNC(=O)c2ccc3c(c2)[C@@H]2O[C@H]3c3ccc(Oc4cccc(F)c4)cc32)cc1` (single isomer, unassigned) [Example 231], the IC50 is 33.9 nM.

For `N=C(N)c1ccc(CNC(=O)c2ccc3c(c2)[C@@H]2O[C@H]3c3ccc(N4CC5CCC(C4)O5)cc32)cc1` (single isomer, unassigned) [Example 232], the IC50 is 38.9 nM.

For the compound `CCc1ccc2c(c1)[C@H]1O[C@@H]2c2ccc(C(=O)NCc3ccc(C(=N)N)cc3)cc21` (single isomer, unassigned) [Example 233], the IC50 is 7.08 nM.

On to `CCN(C(=O)c1ccccc1)c1ccc2c(c1)[C@H]1O[C@@H]2c2ccc(C(=O)NCc3c(C)cc(N)nc3C)cc21` (single isomer, unassigned) [Example 234], for which the IC50 is 10000 nM.
